Assays:
[1] = test system: PBMC from HIV-infected patients; assay: Proliferation of PBMC from HIV-infected individuals in vitro, 3H thymidine incorporation; assay type: cell-based, human; conditions: for stimulation of proliferation (incorporation of 3H thymidine, cpm): very low doses, FIG. 1
Method: Peripheral blood mononuclear cells (PBMC) were obtained by standard methods from HIV-infected individuals, and from uninfected individuals. Varying dosages of KBP or VBP were contacted with the PBMC in vitro, and stimulation of proliferation was measured by incorporation of ^3H thymidine (cpm).

[2] = relatively low doses (10^−7M), FIG. 2

| Compound | proliferation of PBMC of HIV-infected patients ([1]; higher doses (10^−4M), FIG. 2) | proliferation of PBMC of HIV-infected patients [1, 2] | stimulation of proliferation (incorporation of 3H thymidine, cpm) [1] | cytotoxicity (T-cells) | cytotoxicity to T-cells (T-cells) | toxicity observed in vitro (T-cells) | stimulation of PBMC of HIV-infected patients ([1]; concentrations of 10^−6, FIG. 2) |
| --- | --- | --- | --- | --- | --- | --- | --- |
| NCCCC[C@H](N)C(=O)N1CCC[C@H]1B(O)O [Lys-boroPro] | did not have this effect | caused proliferation | stimulated proliferation |  |  |  |  |
| CC(C)[C@H](N)C(=O)N1CCC[C@H]1B(O)O [Val-boroPro] | did not have this effect | caused proliferation | stimulated proliferation | approximately 50% | highly cytotoxic | greater than 80% | there was stimulation |
